Assay results published in PMC5293585, “Characteristics of a water-forming NADH oxidase from Methanobrevibacter smithii, an archaeon in the human gut” (Bioscience Reports, 2016).

Experiments:
NOX-ms [1] = molecular target: T1, NOX-ms (Methanobrevibacter smithii, UniProt A5UJ73); assay: absorption spectrum of holo, apo and reconstituted enzyme; activity restored by FAD; type: binding; settings: apoenzyme reconstituted with equimolar FAD, room temperature, 5 min, dialysed
T1 construct: gene Msm_0046; N-terminal His-tag (pET28a, EcoRI/XhoI), tag kept; E. coli BL21(DE3); FAD-containing holoenzyme (apo form for the FAD row)
T1 sequence (A5UJ73 1-444): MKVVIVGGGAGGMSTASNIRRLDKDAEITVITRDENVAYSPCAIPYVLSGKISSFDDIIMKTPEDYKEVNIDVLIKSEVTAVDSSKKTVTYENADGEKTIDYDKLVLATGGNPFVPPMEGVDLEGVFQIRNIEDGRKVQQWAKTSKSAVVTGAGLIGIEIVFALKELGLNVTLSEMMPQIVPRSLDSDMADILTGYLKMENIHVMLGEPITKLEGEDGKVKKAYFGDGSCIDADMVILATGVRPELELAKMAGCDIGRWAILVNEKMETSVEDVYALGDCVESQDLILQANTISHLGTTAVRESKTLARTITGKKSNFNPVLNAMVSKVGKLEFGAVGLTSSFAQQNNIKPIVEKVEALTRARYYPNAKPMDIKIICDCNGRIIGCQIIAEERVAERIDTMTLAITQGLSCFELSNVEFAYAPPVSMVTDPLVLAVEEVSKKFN

NOX-ms [2] = molecular target: T1, NOX-ms; assay: NADH oxidation at A340, Michaelis-Menten fit; type: biochemical; settings: apparent; O2 as co-substrate (aerobic); NADH 0.02-0.6 mM; optimal conditions (about 37°C, 50 mM sodium phosphate)
NOX-ms [3] = molecular target: T2, NOX-ms (Methanobrevibacter smithii, UniProt A5UJ73, C230A); assay: NADH oxidation at A340, relative activity; type: biochemical; settings: apparent; O2 as co-substrate (aerobic); NADH 0.02-0.6 mM; optimal conditions (about 37°C, 50 mM sodium phosphate)
T2 construct: gene Msm_0046; N-terminal His-tag (pET28a, EcoRI/XhoI), tag kept; E. coli BL21(DE3); FAD-containing holoenzyme (apo form for the FAD row)
T2 sequence (A5UJ73 entry or part of it C230A): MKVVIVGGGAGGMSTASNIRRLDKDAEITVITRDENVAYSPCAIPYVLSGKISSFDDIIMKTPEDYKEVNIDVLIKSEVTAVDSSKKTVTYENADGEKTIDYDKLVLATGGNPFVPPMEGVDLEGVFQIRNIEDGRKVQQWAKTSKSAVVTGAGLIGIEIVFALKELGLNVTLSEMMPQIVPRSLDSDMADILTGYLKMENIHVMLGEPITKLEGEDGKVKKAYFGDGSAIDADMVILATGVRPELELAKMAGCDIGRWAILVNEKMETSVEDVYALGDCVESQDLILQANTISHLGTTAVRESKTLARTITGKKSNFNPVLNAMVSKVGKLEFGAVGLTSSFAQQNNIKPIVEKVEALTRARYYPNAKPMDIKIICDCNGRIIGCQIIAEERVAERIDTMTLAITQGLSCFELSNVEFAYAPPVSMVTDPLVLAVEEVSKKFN

Structure (SMILES) | absorption spectrum of holo, apo and reconstituted enzyme; activity restored by (NOX-ms [1]) | Km (NOX-ms [2]) [µM] | NADH oxidation at A340, relative activity (NOX-ms [3])
Cc1cc2nc3c(=O)[nH]c(=O)nc-3n(C[C@H](O)[C@H](O)[C@H](O)COP(=O)(O)OP(=O)(O)OC[C@H]3O[C@@H](n4cnc5c(N)ncnc54)[C@H](O)[C@@H]3O)c2cc1C [FAD] | The holoenzyme can be reconstituted by incubating equimolar concentrations of apomonomers and FAD | – | –
NC(=O)C1=CN([C@@H]2O[C@H](COP(=O)(O)OP(=O)(O)OC[C@H]3O[C@@H](n4cnc5c(N)ncnc54)[C@H](O)[C@@H]3O)[C@@H](O)[C@H]2O)C=CC1 [NADH] | – | 47.8 to 54.6 | the C230A mutant had similar NOX activity to that of the wild-type protein
